Experimental data as given in patent US7300645B2, “Oral composition comprising isomalt and remineralizing enhancing agent” (Sunstar Kabushiki Kaisha, priority 1998, dated 2007).

Experiment: Remineralizing ability 1: bovine enamel block with artificial caries immersed in sugar test solution
Settings: sugar 20% in 3.0 mM calcium ion / 1.8 mM phosphate ion, immersed ten days
Protocol: The remineralization effect of the sugars was evaluated in an in vitro test using a bovine tooth according to the procedures described in D. J. White et al., Caries Res., 21, 228 (1987).
1. An enamel section having 4 mm length×3 mm width was obtained from the bovine tooth. The section was embedded in a dental resin to obtain an enamel block.
2. An enamel varnish was applied to a portion of approximately ⅓ of the surface of the enamel block in order not to cause the demineralization of that portion. Then, the enamel block was demineralized with a demineralizing solution containing 50% of saturated hydroxyapatite/0.1M lactic acid/pH 5.0 to prepare an artificial caries.
3. An enamel varnish was applied to a portion of approximately ⅔ of the surface of the treated enamel block in order not to cause the remineralization of that portion. The enamel block was immersed for ten days in a test solution prepared by adding the test sugar into an aqueous solution containing 3.0 mM calcium ion and 1.8 mM phosphate ion so that the concentration of the sugar became 20%, to perform the remineralization treatment.
4. Three thin sections having approximately 500 μm in thickness were prepared from the enamel block. The central portion of the thin sections was ground so that the thickness became approximately 100 μm using a double-side polishing machine.
5. The X-ray photograph was taken of the thin section prepared in the fourth step. The mineral amounts of the demineralized portion and the remineralized portion were calculated based on the brightness of the each portion and a distance from the surface using an image processor. The mineral amount difference between the demineralized and remineralized portions was expressed as a remineralization value. […] A control test was performed in a similar manner to that described above, except that the test solution containing only 3.0 mM calcium ion and 1.8 mM phosphate ion but not containing the sugar was used.
Further, a similar test was performed in which sodium fluoride was added to the test solution to 2 ppm in terms of fluoride ion.

[1] = sodium fluoride added to 2 ppm fluoride ion

OC[C@@H](O)[C@@H](O)[C@H](O)[C@H](O)CO [Mannitol]
Remineralization value [1]: 1377 Vol. % μm
Remineralization value (system not containing fluoride): 640 Vol. % μm

OC[C@H]1O[C@H](O[C@H]2O[C@H](CO)[C@@H](O)[C@H](O)[C@H]2O)[C@H](O)[C@@H](O)[C@@H]1O [Trehalose]
Remineralization value [1]: 1205 Vol. % μm
Remineralization value (system not containing fluoride): 715 Vol. % μm

α-D-glucopyranosyl-1,6-mannitol, its isomer, α-D-glucopyranosyl-1,6-sorbitol or a mixture thereof [Palatinit]
Remineralization value [1]: 2374 Vol. % μm
Remineralization value (system not containing fluoride): 1057 Vol. % μm

OC[C@@H](O)[C@H](O)[C@@H](O)CO [Xylitol]
Remineralization value [1]: 1636 Vol. % μm
Remineralization value (system not containing fluoride): 416 Vol. % μm

OC[C@@H](O)[C@@H](O)[C@H](O)[C@@H](O)CO [Sorbitol]
Remineralization value [1]: 1358 Vol. % μm
Remineralization value (system not containing fluoride): 645 Vol. % μm

OC[C@@H](O)[C@@H](O)CO [Erythritol]
Remineralization value [1]: 1330 Vol. % μm
Remineralization value (system not containing fluoride): 602 Vol. % μm
